Test results from patent publication US20260294922A1, “Inhibitors of JUN N-Terminal Kinases (JNK1, JNK2, and/or JNK3) and Mitogen-Activated Protein Kinases (MAPK8, MAPK9, and/or MAPK10) and Methods of Using Same” (Baylor College of Medicine, priority 2023, published 2026).
≈ marks a conversion by molar mass, not a printed value.

How the values were obtained:
JNK3 = JNK3 (Homo sapiens, UniProt P53779); assay: JNK3 kinase (intrinsic ATPase, Kinase-Glo) assay; type: biochemical; conditions: for Kd: Table 3a, read-out: Kd JNK3
JNK2 [1] = target: T1, JNK2 (Homo sapiens, UniProt P45984); assay: JNK2 kinase (intrinsic ATPase, Kinase-Glo) assay; type: biochemical; conditions: for Kd: Table 3a, read-out: Kd JNK2
[2] = In vitro metabolism in mouse liver microsomes; conditions: for half-life: mouse, microsomes
Protocol: (§1) The target product profile seeks to deliver JNK inhibitor as a once daily oral administration. To prioritize compounds for further development, in vitro metabolism of several CDD JNK inhibitors were determined to approximate the plasma half-life and the rate of metabolism of the compounds in vivo.

JNK1 [3] = target: T2, JNK1 (Homo sapiens, UniProt P45983); assay: JNK1 kinase (intrinsic ATPase, Kinase-Glo) assay; type: biochemical; conditions: for Ki: Table 3b, read-out: Ki(app) JNK1
Protocol: JNK1, JNK2, and JNK3 hydrolyze ATP to ADP without any peptide substrates. This allows a very robust and fast endpoint assay where the remaining concentration of ATP is measured (BMG ClarioStar Plus plate reader) using the Kinase-Glo Assay kit from Promega (V6711). A luminescence signal is measured, which is produced by the catalytic conversion of beetle luciferin to oxyluciferin by luciferase. Potential inhibition of luciferase (i.e., false negatives) is easily detected, because assays without kinase are always included, and less ATP than is present in this control reaction could also indicate an inhibition of luciferase, which can be excluded by a counter screen with only luciferase.
To mitigate violation of the linear initial velocity principle, which is a problem in end-point assays when doing dose-responses, the enzyme concentration was carefully optimized, in a total assay volume of 25 μL. […] The kinase reaction was done for 30 or 60 min at 30° C., and detection of leftover ATP was measured according to Promega's protocol. […] Fractional activities were obtained from normalized data. Non-linear regression (GraphPad Prism7) and a modified Morrison equation for tight binding was used to determine apparent Ki values for inhibitors, assuming no particular mode of inhibition. An orthogonal binding assay (LanthaScreen) was outsourced to ThermoFisher Scientific's SelectScreen Services to determine IC50 values.

[4] = In vitro metabolism in human liver microsomes; conditions: for half-life: human, microsomes
Protocol: as §1

JNK1 [5] = target: T2, JNK1; assay: Promega NanoBRET intracellular target engagement (tracer K10 displacement), JNK1; type: cell-based
JNK2 [6] = target: T1, JNK2; assay: Promega NanoBRET intracellular target engagement (tracer K10 displacement), JNK2; type: cell-based

T1 sequence (P45984 whole entry): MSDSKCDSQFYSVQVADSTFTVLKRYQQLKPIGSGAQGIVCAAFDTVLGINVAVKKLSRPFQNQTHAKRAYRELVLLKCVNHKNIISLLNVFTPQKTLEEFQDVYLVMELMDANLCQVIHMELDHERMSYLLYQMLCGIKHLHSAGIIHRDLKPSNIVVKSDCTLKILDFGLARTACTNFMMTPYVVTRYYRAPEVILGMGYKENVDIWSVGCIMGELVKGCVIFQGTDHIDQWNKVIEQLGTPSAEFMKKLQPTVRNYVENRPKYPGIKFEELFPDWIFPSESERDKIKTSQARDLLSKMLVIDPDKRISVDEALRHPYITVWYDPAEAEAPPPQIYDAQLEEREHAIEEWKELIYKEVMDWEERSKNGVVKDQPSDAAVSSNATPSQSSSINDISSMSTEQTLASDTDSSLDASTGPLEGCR
T2 sequence (P45983 whole entry): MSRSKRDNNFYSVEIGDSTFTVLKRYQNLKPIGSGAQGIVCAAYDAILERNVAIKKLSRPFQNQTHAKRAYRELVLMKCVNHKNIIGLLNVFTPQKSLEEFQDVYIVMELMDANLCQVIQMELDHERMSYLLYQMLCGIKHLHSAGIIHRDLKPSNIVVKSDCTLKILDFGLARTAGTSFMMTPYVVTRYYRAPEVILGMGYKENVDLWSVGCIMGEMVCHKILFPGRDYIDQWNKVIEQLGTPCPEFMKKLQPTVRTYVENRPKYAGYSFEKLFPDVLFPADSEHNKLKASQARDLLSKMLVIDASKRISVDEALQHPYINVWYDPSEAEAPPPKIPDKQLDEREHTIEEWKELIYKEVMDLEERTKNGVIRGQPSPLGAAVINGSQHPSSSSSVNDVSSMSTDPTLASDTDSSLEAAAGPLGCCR
Chain of JNK3 (P53779 whole entry): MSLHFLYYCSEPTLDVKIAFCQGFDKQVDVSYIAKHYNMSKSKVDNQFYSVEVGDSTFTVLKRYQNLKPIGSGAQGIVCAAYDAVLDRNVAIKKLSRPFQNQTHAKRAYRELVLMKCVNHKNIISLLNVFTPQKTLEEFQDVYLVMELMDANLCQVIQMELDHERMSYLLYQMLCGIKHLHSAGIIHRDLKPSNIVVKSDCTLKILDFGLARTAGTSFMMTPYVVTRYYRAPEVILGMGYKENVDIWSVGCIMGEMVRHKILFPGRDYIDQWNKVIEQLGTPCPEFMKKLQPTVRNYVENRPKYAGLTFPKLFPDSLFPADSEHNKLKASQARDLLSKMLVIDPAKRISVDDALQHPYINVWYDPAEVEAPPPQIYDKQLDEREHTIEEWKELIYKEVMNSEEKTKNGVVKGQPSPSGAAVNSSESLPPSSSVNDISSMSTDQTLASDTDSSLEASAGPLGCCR

| Compound | Kd (JNK3) [nM] | Kd (JNK2 [1]) [nM] | half-life [2] [h] | Kd (JNK1 [3]) [nM] | half-life [4] [h] | Predicted half-life, MLM t1/2 [2] [h] | Predicted half-life, HLM t1/2 [4] [h] | solubility (Solubility) [µM] | IC50 (JNK1 [5]) [nM] | Ki (JNK1 [3]) [nM] | IC50 (JNK2 [6]) [nM] | Ki (JNK3) [nM] | Ki (JNK2 [1]) [nM] |
| --- | --- | --- | --- | --- | --- | --- | --- | --- | --- | --- | --- | --- | --- |
| CN(C)C(=O)c1cc(NC(=O)c2cc3c(-c4cnc5[nH]ccc5c4)cccc3s2)ccc1OC(F)(F)F [CDD-2857, N-(3-(dimethylcarbamoyl)-4-(trifluoromethoxy)phenyl)-4-(1H-pyrrolo[2,3-b]pyridin-5-yl)benzo[b]thiophene-2-carboxamide] | 15.7 ± 1.2 | 49.8 ± 9.7 | 1.42 | 11.3 ± 3.4 | 2.88 | – | – | – | – | – | – | – | – |
| Cc1sc2c(c1C)C(c1ccc(Cl)cc1)=N[C@@H](CC(=O)OC(C)(C)C)c1nnc(C)n1-2 [JQ1, reference compound] | – | – | – | – | – | 0.193 | 0.275 | – | – | – | – | – | – |
| O=C(c1cc2c(-c3cnc4[nH]ccc4c3)cccc2s1)N1CCN(c2ccccc2)C(=O)C1 [CDD-3116, 4-(4-(1H-pyrrolo[2,3-b]pyridin-5-yl)benzo[b]thiophene-2-carbonyl)-1-phenylpiperazin-2-one] | 114 ± 7 | 447 ± 65 | 0.567 | 54.5 ± 5.4 | 0.8 | – | – | 4.2 (≈ 1.9 µg/mL) | – | – | – | – | – |
| CN(C)CCNC(=O)c1cc2c(-c3cnc4[nH]ccc4c3)cccc2s1 [CDD-3085, N-(2-(dimethylamino)ethyl)-4-(1H-pyrrolo[2,3-b]pyridin-5-yl)benzo[b]thiophene-2-carboxamide] | 30.3 ± 2.7 | 42.8 ± 8.3 | 1.17 | 13.1 ± 1.2 | 7.5 | – | – | 170 (≈ 62 µg/mL) | – | – | – | – | – |
| O=C(Nc1ccc(O)c(C(=O)NC2COC2)c1)c1cc2c(-c3cnc4[nH]ccc4c3)cccc2s1 [CDD-3112, N-(4-hydroxy-3-(oxetan-3-ylcarbamoyl)phenyl)-4-(1H-pyrrolo[2,3-b]pyridin-5-yl)benzo[b]thiophene-2-carboxamide] | 6.4 ± 0.6 | 13.5 ± 0.8 | 2.83 | 2.84 ± 0.49 | 1.65 | – | – | 1.6 (≈ 0.775 µg/mL) | – | – | – | – | – |
| CNC(=O)c1cc(NC(=O)c2cc3c(-c4cnc5[nH]ccc5c4)cccc3s2)ccc1O [CDD-3087, N-(4-hydroxy-3-(methylcarbamoyl)phenyl)-4-(1H-pyrrolo[2,3-b]pyridin-5-yl)benzo[b]thiophene-2-carboxamide] | 4.54 ± 0.5 | 11.4 ± 0.81 | 1.28 | 1.96 ± 0.53 | 1.97 | – | – | 0.4 (≈ 0.177 µg/mL) | – | – | – | – | – |
| COc1ccc(NC(=O)c2cc3c(-c4cnc5[nH]ccc5c4)cccc3s2)cc1 [CDD-2629, N-(4-methoxyphenyl)-4-(1H-pyrrolo[2,3-b]pyridin-5-yl)benzo[b]thiophene-2-carboxamide] | 9.9 ± 1.3 | 15.4 ± 1.4 | – | 7.8 ± 1.4 | – | – | – | – | – | – | – | – | – |
| CN(C)C(=O)c1cc(NC(=O)c2ccc3ncc(-c4cnc5[nH]ccc5c4)n3c2)ccc1O [CDD-3016] | 1.48 ± 0.14 | 5.77 ± 0.8 | 5.3 | 0.65 ± 0.15 | 4.88 | – | – | 9.7 (≈ 4.27 µg/mL) | – | – | – | – | – |
| CN(C)C(=O)c1cc(NC(=O)c2cc3c(-c4cnc5[nH]ccc5c4)cncc3s2)ccc1O [CDD-3111, N-(3-(dimethylcarbamoyl)-4-hydroxyphenyl)-4-(1H-pyrrolo[2,3-b]pyridin-5-yl)thieno[2,3-c]pyridine-2-carboxamide] | 0.32 ± 0.04 | 0.73 ± 0.1 | 2.07 | 0.07 ± 0.05 | 2.22 | – | – | 3.8 (≈ 1.74 µg/mL) | – | – | – | – | – |
| CN(C)C(=O)c1cc(NC(=O)c2cc3c(-c4cnc5[nH]ccc5c4)cccc3s2)ccc1F [CDD-2730, N-(3-(dimethylcarbamoyl)-4-fluorophenyl)-4-(1H-pyrrolo[2,3-b]pyridin-5-yl)benzo[b]thiophene-2-carboxamide] | 1.86 ± 0.18 | 5.33 ± 0.52 | – | 0.58 ± 0.08 | – | – | – | 0.3 (≈ 0.138 µg/mL) | – | – | – | – | – |
| CN(C)C(=O)c1cccc(NC(=O)c2cc3c(-c4cnc5[nH]ccc5c4)cccc3s2)c1 [CDD-2632, N-(3-(dimethylcarbamoyl)phenyl)-4-(1H-pyrrolo[2,3-b]pyridin-5-yl)benzo[b]thiophene-2-carboxamide] | 5.82 ± 0.92 | 3.5 ± 1.4 | – | 4.91 ± 0.9 | – | – | – | 0.6 (≈ 0.264 µg/mL) | – | – | – | – | – |
| CNC(=O)CN1[C@H](CC(=O)NCCCN(C)c2ccc(F)cc2)CNC[C@H]1C [CDD-2272, N-(3-((4-fluorophenyl)(methyl)amino)propyl)-2-((2R,6R)-6-methyl-1-(2-(methylamino)-2-oxoethyl)piperazin-2-yl)acetamide] | – | – | – | – | – | – | – | – | 60000 | 860 | 58000 | – | – |
| Cc1nnc2n1-c1ccc(Cl)cc1C(c1ccccc1)=NC2 [Alprazolam, reference compound] | – | – | – | – | – | 3.975 | 12.63 | – | – | – | – | – | – |
| N#Cc1cc(NC(=O)c2cc3c(-c4cnc5[nH]ccc5c4)cccc3s2)ccc1O [CDD-3126, N-(3-cyano-4-hydroxyphenyl)-4-(1H-pyrrolo[2,3-b]pyridin-5-yl)benzo[b]thiophene-2-carboxamide] | – | – | 2.4 | – | 5.4 | – | – | > 200 | – | 30 | – | – | – |
| CN(C)CCNC(=O)c1cc(NC(=O)c2cc3c(-c4cnc5[nH]ccc5c4)cccc3s2)ccc1O [CDD-3086, N-(3-((2-(dimethylamino)ethyl)carbamoyl)-4-hydroxyphenyl)-4-(1H-pyrrolo[2,3-b]pyridin-5-yl)benzo[b]thiophene-2-carboxamide] | 5.21 ± 0.46 | 5.98 ± 0.42 | 1.5 | 0.67 ± 0.14 | 1.68 | – | – | 2 (≈ 0.999 µg/mL) | – | – | – | – | – |
| O=C(Nc1ccc(O)c(C(=O)NCC2CC2)c1)c1cc2c(-c3cnc4[nH]ccc4c3)cccc2s1 [CDD-3113, N-(3-((cyclopropylmethyl)carbamoyl)-4-hydroxyphenyl)-4-(1H-pyrrolo[2,3-b]pyridin-5-yl)benzo[b]thiophene-2-carboxamide] | 10.9 ± 0.7 | 40.7 ± 5.5 | 3.15 | 10.4 ± 1.4 | 4.8 | – | – | – | – | – | – | – | – |
| CNC(=O)c1ccc(NC(=O)c2ccn3ncc(-c4cnc5[nH]ccc5c4)c3c2)cc1 [CDD-2461, N-(4-(methylcarbamoyl)phenyl)-3-(1H-pyrrolo[2,3-b]pyridin-5-yl)pyrazolo[1,5-a]pyridine-5-carboxamide] | 0.33 ± 0.03 | 0.32 ± 0.12 | 0.513 | 0.2 ± 0.18 | 1.19 | – | – | 1.8 (≈ 0.739 µg/mL) | 49500 | – | 5300 | – | – |
| CCN(CC)Cc1cc(NC(=O)c2cc3c(-c4cnc5[nH]ccc5c4)cccc3s2)ccc1O [CDD-3117, N-(3-((diethylamino)methyl)-4-hydroxyphenyl)-4-(1H-pyrrolo[2,3-b]pyridin-5-yl)benzo[b]thiophene-2-carboxamide] | 2.9 ± 0.4 | 2.1 ± 0.3 | 1.9 | 0.9 ± 0.2 | 0.517 | – | – | 3.4 (≈ 1.6 µg/mL) | – | – | – | – | – |
| O=C(Nc1ccc(C(F)(F)F)cc1)c1ccn2ncc(-c3cnc4[nH]ccc4c3)c2c1 [CDD-2483, 3-(1H-pyrrolo[2,3-b]pyridin-5-yl)-N-(4-(trifluoromethyl)phenyl)pyrazolo[1,5-a]pyridine-5-carboxamide] | – | – | – | – | – | – | – | 0.6 (≈ 0.253 µg/mL) | – | – | – | 167 | 339 |
| O=C(Nc1ccccc1)c1cc2c(-c3cnc4[nH]ccc4c3)cccc2s1 [CDD-2631, N-phenyl-4-(1H-pyrrolo[2,3-b]pyridin-5-yl)benzo[b]thiophene-2-carboxamide] | 12.7 ± 1.2 | 27.8 ± 3.6 | – | 5.9 ± 1.1 | – | – | – | – | – | – | – | – | – |
| CN(C)C(=O)c1cc(NC(=O)c2cc3c(-c4cnc5[nH]ccc5c4)cccc3s2)ccc1C(F)(F)F [CDD-2732, N-(3-(dimethylcarbamoyl)-4-(trifluoromethyl)phenyl)-4-(1H-pyrrolo[2,3-b]pyridin-5-yl)benzo[b]thiophene-2-carboxamide] | 24.3 ± 1.9 | 67 ± 11 | – | 14.3 ± 1.6 | – | – | – | – | – | – | – | – | – |
| O=C(Nc1ccc2c(c1)C(=O)NC2)c1cc2c(-c3cnc4[nH]ccc4c3)cccc2s1 [CDD-3115, N-(3-oxoisoindolin-5-yl)-4-(1H-pyrrolo[2,3-b]pyridin-5-yl)benzo[b]thiophene-2-carboxamide] | 4.6 ± 0.7 | 6.3 ± 0.6 | 1.43 | 1.5 ± 0.2 | 14.8 | – | – | 1.4 (≈ 0.594 µg/mL) | – | – | – | – | – |
| O=C(Nc1ccccc1)c1ccn2ncc(-c3cnc4[nH]ccc4c3)c2c1 [CDD-2485, N-phenyl-3-(1H-pyrrolo[2,3-b]pyridin-5-yl)pyrazolo[1,5-a]pyridine-5-carboxamide] | 0.73 ± 0.02 | 0.95 ± 0.16 | – | 0.12 ± 0.09 | – | – | – | – | – | – | – | – | – |
